Test results reported in ChEMBL document CHEMBL1933004, “Novel (S)-1,2,3,4-tetrahydroisoquinoline-3-carboxylic acids: peroxisome proliferator-activated receptor γ selective agonists with protein-tyrosine phosphatase 1B inhibition” (Bioorg Med Chem, 2012).

Experiments:
[1] = target: T1, Peroxisome proliferator-activated receptor gamma (Homo sapiens, UniProt P37231); test: Transactivation of human full length PPARgamma expressed in COS1 cells co-transfected with RXRalpha after 24 hrs by luciferase reporter gene assay; format: cell-based, COS-1
T1 sequence (P37231 whole entry): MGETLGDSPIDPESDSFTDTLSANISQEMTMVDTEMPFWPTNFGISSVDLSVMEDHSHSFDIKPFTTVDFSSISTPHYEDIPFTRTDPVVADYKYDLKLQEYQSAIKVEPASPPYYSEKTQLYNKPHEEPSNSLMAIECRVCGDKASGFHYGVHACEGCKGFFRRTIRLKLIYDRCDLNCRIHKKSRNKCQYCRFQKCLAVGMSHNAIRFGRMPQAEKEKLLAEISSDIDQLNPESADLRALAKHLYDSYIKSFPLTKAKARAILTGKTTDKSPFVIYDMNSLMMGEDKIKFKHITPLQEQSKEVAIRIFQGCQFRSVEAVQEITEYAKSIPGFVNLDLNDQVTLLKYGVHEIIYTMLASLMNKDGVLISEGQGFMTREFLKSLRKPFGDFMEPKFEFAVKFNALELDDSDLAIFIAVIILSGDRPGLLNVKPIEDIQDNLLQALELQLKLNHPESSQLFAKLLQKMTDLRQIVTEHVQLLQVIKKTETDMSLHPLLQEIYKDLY

[2] = target: T2, Peroxisome proliferator-activated receptor gamma (Homo sapiens) (UniProt P37231); test: Transactivation of human full length PPARgamma expressed in COS1 cells co-transfected with RXRalpha after 24 hrs by luciferase reporter gene assay relative to farglitazar; format: cell-based; details: COS-1
T2 sequence (whole entry): T1 sequence (P37231 whole entry)

[3] = target: T3, Peroxisome proliferator-activated receptor alpha (Homo sapiens) (UniProt Q07869); test: Transactivation of human full length PPARalpha expressed in COS1 cells co-transfected with RXRalpha after 24 hrs by luciferase reporter gene assay relative to WY14643; format: cell-based; details: COS-1
T3 sequence (whole entry): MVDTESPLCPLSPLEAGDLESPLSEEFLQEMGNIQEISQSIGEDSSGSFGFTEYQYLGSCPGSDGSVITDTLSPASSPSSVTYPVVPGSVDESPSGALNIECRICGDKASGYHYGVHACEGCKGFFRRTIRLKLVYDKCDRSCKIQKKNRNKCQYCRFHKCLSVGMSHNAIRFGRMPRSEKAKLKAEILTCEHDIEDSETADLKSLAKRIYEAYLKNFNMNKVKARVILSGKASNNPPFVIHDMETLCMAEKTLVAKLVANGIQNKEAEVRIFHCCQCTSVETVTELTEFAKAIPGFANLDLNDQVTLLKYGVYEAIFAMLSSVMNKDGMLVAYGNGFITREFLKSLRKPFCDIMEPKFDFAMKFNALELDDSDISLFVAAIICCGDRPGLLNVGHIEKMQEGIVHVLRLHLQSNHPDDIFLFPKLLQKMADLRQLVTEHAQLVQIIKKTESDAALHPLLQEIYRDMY

[4] = target: T4, Tyrosine-protein phosphatase non-receptor type 1 (Homo sapiens, UniProt P18031); test: Inhibition of PTB1B using pNPP as substrate after 30 mins
T4 sequence (P18031 whole entry): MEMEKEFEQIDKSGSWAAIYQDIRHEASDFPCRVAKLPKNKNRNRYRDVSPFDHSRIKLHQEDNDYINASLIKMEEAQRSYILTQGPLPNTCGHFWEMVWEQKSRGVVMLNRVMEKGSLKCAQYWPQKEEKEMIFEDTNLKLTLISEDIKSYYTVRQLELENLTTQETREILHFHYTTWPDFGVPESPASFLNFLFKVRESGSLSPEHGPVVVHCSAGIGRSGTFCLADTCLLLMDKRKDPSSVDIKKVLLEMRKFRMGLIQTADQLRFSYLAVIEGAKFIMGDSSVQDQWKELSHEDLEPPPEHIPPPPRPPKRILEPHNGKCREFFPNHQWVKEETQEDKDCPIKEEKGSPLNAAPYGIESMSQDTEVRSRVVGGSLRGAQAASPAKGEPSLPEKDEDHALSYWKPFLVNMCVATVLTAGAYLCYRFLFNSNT

[5] = system: Mus musculus; test: Hypoglycemic activity in diabetic KK-Ay mouse model assessed as decrease in glucose level at 10 mg/kg, po qd for 4 days relative to untreated control; format: functional; parameters: scale not given: the % may be the effect or the level left
[6] = target: T2, Peroxisome proliferator-activated receptor gamma (Homo sapiens); test: Ratio of rosiglitazone EC50 to compound EC50 for human full length PPARgamma
[7] = system: Mus musculus; test: Hypoglycemic activity in diabetic KK-Ay mouse model assessed as decrease in glucose level at 3 mg/kg, po qd for 14 days (reference value: 648.4 +/- 77.1 mg/dl); format: functional
[8] = system: Mus musculus; test: Hypoglycemic activity in diabetic KK-Ay mouse model assessed as decrease in glucose level at 10 mg/kg, po qd for 14 days (reference value: 648.4 +/- 77.1 mg/dl); format: functional
[9] = system: Mus musculus; test: Hypoglycemic activity in diabetic KK-Ay mouse model assessed as decrease in glucose level at 30 mg/kg, po qd for 14 days (reference value: 648.4 +/- 77.1 mg/dl); format: functional
[10] = system: Mus musculus; test: Hypoglycemic activity in po dosed diabetic KK-Ay mouse model assessed as decrease in glucose level compound administered for 14 days; format: functional; details: for ED50: 336 h
[11] = system: Mus musculus; test: Hypotriglyceridemic activity in diabetic KK-Ay mouse model assessed as decrease in triglyceride level at 3 mg/kg, po qd for 14 days (reference value: 819.9 +/- 135.5 mg/dl); format: functional
[12] = system: Mus musculus; test: Hypotriglyceridemic activity in diabetic KK-Ay mouse model assessed as decrease in triglyceride level at 10 mg/kg, po qd for 14 days (reference value: 819.9 +/- 135.5 mg/dl); format: functional
[13] = system: Mus musculus; test: Hypotriglyceridemic activity in diabetic KK-Ay mouse model assessed as decrease in triglyceride level at 30 mg/kg, po qd for 14 days (reference value: 819.9 +/- 135.5 mg/dl); format: functional
[14] = system: Mus musculus; test: Hypotriglyceridemic activity in po dosed diabetic KK-Ay mouse model assessed as decrease in triglyceride level compound administered for 14 days; format: functional; details: for ED50: 336 h
[15] = system: Mus musculus; test: Ratio of rosiglitazone ED50 to compound ED50 for po dosed diabetic KK-Ay mouse model; format: functional
[16] = system: Rattus norvegicus; test: Effect on hematocrit level in Sprague-Dawley rat at 12.5 mg/kg after 28 days (reference value: 49.4 +/- 0.4 %); format: functional
[17] = system: Rattus norvegicus; test: Effect on hematocrit level in Sprague-Dawley rat at 25 mg/kg after 28 days (reference value: 49.4 +/- 0.4 %); format: functional
[18] = system: Rattus norvegicus; test: Effect on hematocrit level in Sprague-Dawley rat at 50 mg/kg after 28 days (reference value: 49.4 +/- 0.4 %); format: functional
[19] = system: Rattus norvegicus; test: Effect on hematocrit level in Sprague-Dawley rat at 100 mg/kg after 28 days (reference value: 49.4 +/- 0.4 %); format: functional
[20] = system: Rattus norvegicus; test: Effect on RBC count in Sprague-Dawley rat at 12.5 mg/kg after 28 days (reference value: 862 +/- 21.5 x 10 ' 4/micro L); format: functional
[21] = system: Rattus norvegicus; test: Effect on RBC count in Sprague-Dawley rat at 25 mg/kg after 28 days (reference value: 862 +/- 21.5 x 10 ' 4/micro L); format: functional
[22] = system: Rattus norvegicus; test: Effect on RBC count in Sprague-Dawley rat at 50 mg/kg after 28 days (reference value: 862 +/- 21.5 x 10 ' 4/micro L); format: functional
[23] = system: Rattus norvegicus; test: Effect on RBC count in Sprague-Dawley rat at 100 mg/kg after 28 days (reference value: 862 +/- 21.5 x 10 ' 4/micro L); format: functional
[24] = Cmax in Sprague-Dawley rat at 10 mg/kg after 0.5 to 8 hrs by HPLC analysis; format: ADME, organism-based; parameters: dose 10 mg/kg; details: in vivo
[25] = system: Rattus norvegicus; test: Effect on hematocrit level in Sprague-Dawley rat at 12.5 mg/kg after 28 days (reference value: 47.5 +/- 0.6 %); format: functional
[26] = system: Rattus norvegicus; test: Effect on hematocrit level in Sprague-Dawley rat at 25 mg/kg after 28 days (reference value: 47.5 +/- 0.6 %); format: functional
[27] = system: Rattus norvegicus; test: Effect on hematocrit level in Sprague-Dawley rat at 50 mg/kg after 28 days (reference value: 47.5 +/- 0.6 %); format: functional
[28] = system: Rattus norvegicus; test: Effect on hematocrit level in Sprague-Dawley rat at 100 mg/kg after 28 days (reference value: 47.5 +/- 0.6 %); format: functional
[29] = system: Rattus norvegicus; test: Effect on RBC count in Sprague-Dawley rat at 12.5 mg/kg after 28 days (reference value: 832 +/- 25.2 x 10 ' 4/micro L); format: functional
[30] = system: Rattus norvegicus; test: Effect on RBC count in Sprague-Dawley rat at 25 mg/kg after 28 days (reference value: 832 +/- 25.2 x 10 ' 4/micro L); format: functional
[31] = system: Rattus norvegicus; test: Effect on RBC count in Sprague-Dawley rat at 50 mg/kg after 28 days (reference value: 832 +/- 25.2 x 10 ' 4/micro L); format: functional
[32] = system: Rattus norvegicus; test: Effect on RBC count in Sprague-Dawley rat at 100 mg/kg after 28 days (reference value: 832 +/- 25.2 x 10 ' 4/micro L); format: functional

Emax [3] [%] | IC50 [4] [nM] | Cmax [24] [µM] | Compound | Activity [5] [%] | Activity [7] [mg/dL] | Activity [8] [mg/dL] | Activity [9] [mg/dL] | Activity [10] | ED50 [10] [mg/kg] | Activity [11] [mg/dL] | Activity [12] [mg/dL] | Activity [13] [mg/dL] | Activity [14] | ED50 [14] [mg/kg] | further results
< 50 | 1180 | 4.5 | C/C=C/C=C/C(=O)N1Cc2cc(OCCc3nc(/C=C/CCC(C)C)oc3C)ccc2C[C@H]1C(=O)O.CC(C)(C)N | 55 | 385.2 | 273.7 | 252.5 | Dose-dependent effect | 4.3 | 625.6 | 243.8 | 318.4 | Dose-dependent effect | 6.2 | EC50 [1]: 30 nM; Emax [2]: 98%; Ratio EC50 [6]: 4; Ratio ED50 [15]: 5; Activity [16]: 49.7%; Activity [17]: 47.1%; Activity [18]: 48.2%; Activity [19]: 47.8%; Activity [20]: 868 ×10⁴ /uL; Activity [21]: 807 ×10⁴ /uL; Activity [22]: 835 ×10⁴ /uL; Activity [23]: 817 ×10⁴ /uL
105 | > 30000 | 34.7 | CN(CCOc1ccc(CC2SC(=O)NC2=O)cc1)c1ccccn1 (stereo not drawn) [ROSIGLITAZONE] | 48 | 413.5 | 392.9 | 320.6 | Dose-dependent effect | 23 | 593.3 | 672.3 | 504.9 | Dose-dependent effect | > 30 | Activity [25]: 46.3%; Activity [26]: 43.9%; Activity [27]: 43.1%; Activity [28]: 42.3%; Activity [29]: 791 ×10⁴ /uL; Activity [30]: 727 ×10⁴ /uL; Activity [31]: 724 ×10⁴ /uL; Activity [32]: 679 ×10⁴ /uL
